Results from patent publication US7598245B2 (Vertex Pharmaceuticals Incorporated, priority 2003, dated 2009).

Biological target: T1, PDK-1 (Homo sapiens, UniProt O15530)
T1 sequence (O15530 1-556): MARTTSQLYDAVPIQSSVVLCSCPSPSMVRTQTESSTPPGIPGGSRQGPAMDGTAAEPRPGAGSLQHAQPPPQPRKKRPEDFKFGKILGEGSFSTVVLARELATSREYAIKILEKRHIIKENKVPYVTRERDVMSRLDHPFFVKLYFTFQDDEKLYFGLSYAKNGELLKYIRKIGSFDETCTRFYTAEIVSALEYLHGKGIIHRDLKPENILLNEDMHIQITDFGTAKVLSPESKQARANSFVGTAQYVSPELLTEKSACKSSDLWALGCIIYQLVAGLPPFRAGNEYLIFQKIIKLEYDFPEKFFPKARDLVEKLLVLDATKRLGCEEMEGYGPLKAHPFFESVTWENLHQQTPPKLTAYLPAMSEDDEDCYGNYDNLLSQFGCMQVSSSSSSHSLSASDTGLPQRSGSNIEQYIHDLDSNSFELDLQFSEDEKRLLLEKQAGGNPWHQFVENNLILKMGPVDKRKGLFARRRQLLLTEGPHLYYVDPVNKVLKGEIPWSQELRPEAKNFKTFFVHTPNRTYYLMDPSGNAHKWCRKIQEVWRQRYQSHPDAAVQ
Assay: PDK-1 inhibition, radioactive-phosphate incorporation assay
Format: biochemical
Settings: 40 μM ATP
Protocol: Compounds were screened for their ability to inhibit PDK-1 using a radioactive-phosphate incorporation assay (Pitt and Lee, J. Biomol. Screen., (1996) 1, 47). Assays were carried out in a mixture of 100 mM HEPES (pH 7.5), 10 mM MgCl2, 25 mM NaCl, 2 mM DTT. Final substrate concentrations in the assay were 40 μM ATP (Sigma Chemicals) and 65 μM peptide (PDKtide, Upstate, Lake Placid, N.Y.). Assays were carried out at 30° C. and 25 nM PDK-1 in the presence of ˜27.5 nCi/μL of [γ-^32P]ATP (Amersham Pharmacia Biotech, Amersham, UK). An assay stock buffer solution was prepared containing all of the reagents listed above, with the exception of ATP, and the test compound of interest. 15 μl of the stock solution was placed in a 96 well plate followed by addition of 1 μl of 0.5 mM DMSO stock containing the test compound (final compound concentration 25 μM, final DMSO concentration […]). The plate was preincubated for about 10 minutes at 30° C. and the reaction initiated by addition of 4 μl ATP (final concentration 40 μM).
The reaction was stopped after 10 minutes by the addition of 100 μL 100 mM phosphoric acid, 0.01% Tween-20. A phosphocellulose 96 well plate (Millipore, Cat no. MAPHNOB50) was pretreated with 100 μL 100 mM phosphoric acid, 0.01% Tween-20 prior to the addition of the reaction mixture (100 μL). The spots were left to soak for at least 5 minutes, prior to wash steps (4×200 μL 100 mM phosphoric acid, 0.01% Tween-20). After drying, 20 μL Optiphase ‘SuperMix’ liquid scintillation cocktail (Perkin Elmer) was added to the well prior to scintillation counting (1450 Microbeta Liquid Scintillation Counter, Wallac).

| Ki [nM] | Structure (SMILES) |
| --- | --- |
| 1000 to 10000 | COc1cc(Nc2ncn(-c3ccccc3)n2)cc(OC)c1OC [Compound I-42] |
| 1000 to 10000 | OC[C@H]1CCCN(c2cc(-n3cnc(Nc4ccccc4)n3)ccn2)C1 [Compound I-65] |
| < 1000 | CC(=O)N1[C@H](C)CN(c2cc(-n3cnc(Nc4ccccc4)n3)ccn2)C[C@@H]1C [Compound I-74] |
| 1000 to 10000 | c1ccc(-n2cnc(Nc3ccc(N4CCOCC4)nc3)n2)cc1 [Compound I-134] |
